# From patent US20260265202A1, “N-(N-AMINOALKYL)[…] SERIES OF CHLORIDE-SENSITIVE FLUOROPHORES AND METHODS OF USE THEREOF” (The General Hospital Corporation, priority 2022, published 2026)
# Assays:
# [1] = Toxicity of probe (stated key feature)
# [2] = Spectrophotometry and two-photon excitation scans; assay type: physicochemical
# Description: Spectrophotometry: Absorption readings were obtained using a Nanodrop One system (Thermo Scientific), while excitation and emission scans were obtained using a Spectramax M2 dual grating system (Molecular Devices). Intensity scans relative to excitation wavelength obtained on either of our custom two-photon excitation (2PE) rigs were analyzed with ImageJ and plotted using Matlab (v2022b).
Compound,toxicity [1],fluorescence emission maximum ([2]; excitation at 360 nm),excitation wavelength using 2PE [2]
"NCCCC[n+]1cc2ccccc2c2ccccc21 [ABP, N-(4-aminobutyl)phenantridinium]",absence of toxicity,approximately 420 nm,–
"O=S(=O)(O)CCCC[n+]1ccc2ccccc2c1 [NSBQ, N-4(sulfobutyl)isoquinolinium, reference compound]",–,–,710 nm
